Assay results as given in patent publication US20260365698A1, “STAPLED PEPTIDES FOR SENSITIZATION OF CANCER TO TREATMENT” (Purdue Research Foundation, priority 2022, published 2026).
Bridge positions count the residues as written; N and C are the ends. Square brackets hold non-standard residues; d marks the D form. Peptide text beside a SMILES is read from it. S5 = C=CCCC[C@](C)(N)C(=O)O

Tests used:
Nrf2 = assay: Dual luciferase assay, NQO1-ARE firefly / TK-Renilla reporter; format: cell-based; conditions: HEK-293T cells; for inhibition of Nrf2 activity: 16 hours, 50 μM in FIG. 4A
Method: The results are averages from three replicates.
The peptides from Example 1 were screened for Nrf2 inhibition using a previously developed dual luciferase assay. Ren et al., Brusatol enhances the efficacy of chemotherapy by inhibiting the Nrf2-mediated defense mechanism, Biological Sciences 108(4): 1433-1438 (2011). Briefly, HEK-293T cells stably expressing ARE-firefly luciferase and TK-Renilla luciferase were used. The cells were treated with different concentrations of compounds N1 (SEQ ID NO: 3), N1 S (SEQ ID NO: 6), N2 (SEQ ID NO: 4), N2S (SEQ ID NO: 7), N3 (SEQ ID NO: 5), and N3S (SEQ ID NO: 8) for 16 hours. The cells were lysed in 1× passive lysis buffer, and both firefly luciferase and Renilla luciferase activities were measured using the Promega Dual-Luciferase™ Reporter (DLR™) Assay System and a luminometer (Turner Biosystems 20/20^n Luminometer). The samples were in triplicate for all concentrations of compounds (n=3).

[1] = target: T1, Nrf2-MafG-DNA ARE complex (Homo sapiens, UniProt O15525); assay: Fluorescence polarization assay with Nrf2, MafG and FAM-labeled ARE; format: biochemical; conditions: 200 nM His-MBP-NRF2, 200 nM His-MafG, 20 nM FAM-labeled ARE; 'as low as'
T1 construct: listing gives 93-aa segments
T1 sequence (O15525 whole entry, one chain of several): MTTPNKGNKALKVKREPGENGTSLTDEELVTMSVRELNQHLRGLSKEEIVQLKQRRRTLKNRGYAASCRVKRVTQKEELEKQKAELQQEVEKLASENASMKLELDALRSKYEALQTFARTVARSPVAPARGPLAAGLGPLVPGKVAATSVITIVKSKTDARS
Method: Briefly, a 96-well plate (VWR® Solid Bottom Assay Plates, 96-well, black) was used to encapsulate each fluorescence polarization reaction. Unless otherwise stated (i.e., ARE only, ARE+MafG), each 100-μL reaction contained 200 nM purified recombinant His-MBP-NRF2, 200 nM purified recombinant His-MafG, various concentrations of molecule, and 20 nM 5′ FAM-labeled ARE all together in 1× PBS solution.
First, NRF2 was incubated with molecule for 5 minutes with shaking, followed by the addition of MafG for another 5-minute incubation. Finally, ARE was added, and the MafG-NRF2-ARE system was incubated for 10 minutes with shaking. After incubation, the plate was placed into a plate reader (Molecular Devices SpectraMax® iD5 Multi-Mode Microplate Reader). The fluorescence polarization measurement was performed at excitation/emission values of 470:525 nm, respectively. The samples were in triplicate (n=3).

## CC[C@H](C)[C@H](NC(C)=O)C(=O)N[C@H](C(=O)N[C@@H](CCC(=O)O)C(=O)N[C@@H](CC(C)C)C(=O)N[C@@H](CCC(=O)O)C(=O)N[C@@]1(C)CCCC=CCCC[C@@](C)(C(=O)N[C@@H](CC(C)C)C(=O)N[C@@H](CCCCN)C(=O)N[C@@H](CC(=O)O)C(=O)N[C@@H](CCC(=O)O)C(=O)N[C@@H](CCCCN)C(=O)N[C@@H](CCC(=O)O)C(N)=O)NC(=O)[C@H](CC(=O)O)NC(=O)[C@H](CC(C)C)NC(=O)[C@H](CC(=O)O)NC1=O)C(C)C [N1S] (Ac-IVELE[S5]DLD[S5]LKDEKE-NH2; staple 6-10)
Nrf2
  inhibition of Nrf2 activity: inhibit Nrf2
Nrf2; listed as NIS
  inhibition of Nrf2 activity: most potent inhibition of Nrf2 activity
Nrf2; FIG. 4B
  dose response for Nrf2 inhibition: showed a dose-response curve for Nrf2 inhibition
[1]
  lowest concentration decreasing binding of the heterodimer to the DNA: 0.2 µM
